Consider 1 molecule from ChEMBL document CHEMBL5390263, “Direct evaluation of polarity of the ligand binding pocket in retinoid X receptor using a fluorescent solvatochromic agonist” (Bioorg Med Chem Lett, 2023).

The target in experiment [1] is T1, Retinoic acid receptor RXR-alpha (Homo sapiens, UniProt P19793).
T1 sequence (P19793 whole entry): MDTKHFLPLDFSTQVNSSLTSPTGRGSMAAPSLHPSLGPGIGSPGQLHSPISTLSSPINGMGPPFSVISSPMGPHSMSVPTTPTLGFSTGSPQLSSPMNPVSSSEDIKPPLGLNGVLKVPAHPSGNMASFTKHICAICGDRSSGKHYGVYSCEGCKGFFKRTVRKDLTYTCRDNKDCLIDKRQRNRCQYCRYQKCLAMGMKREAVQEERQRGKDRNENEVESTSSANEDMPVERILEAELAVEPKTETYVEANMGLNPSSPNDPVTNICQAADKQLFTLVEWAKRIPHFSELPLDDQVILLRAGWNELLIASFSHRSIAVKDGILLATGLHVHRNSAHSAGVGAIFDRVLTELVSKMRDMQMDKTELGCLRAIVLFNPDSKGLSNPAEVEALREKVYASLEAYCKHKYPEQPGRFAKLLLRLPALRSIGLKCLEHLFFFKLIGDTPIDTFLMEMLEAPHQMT
Kind of experiment: Binding affinity to RXRalpha-LBP (unknown origin) assessed as dissociation constant by FRET assay.

The target in experiment [2] is T1, Retinoic acid receptor RXR-alpha. Nature of the experiment: Binding affinity to RXRalpha-LBD (unknown origin) assessed as dissociation constant by FRET assay.
Experiment [3] addresses T2, Retinoic acid receptor RXR-alpha (Homo sapiens) (UniProt P19793).
T2 sequence (whole entry): T1 sequence (P19793 whole entry)
Kind of experiment: Binding affinity to RXRalpha-LBD (unknown origin) assessed as fluorescence intensity by measuring maximum excitation wavelength from 382 to 440 nm at 5 to 20 uM in the presence of bexarotene by FRET assay. The settings on record: dose 5-20 µM.

Experiment [4] deals with T2, Retinoic acid receptor RXR-alpha (Homo sapiens). Kind of experiment: Binding affinity to RXRalpha-LBD (unknown origin) assessed as increase in fluorescence intensity by measuring maximum excitation of 440 nm wavelength at 16 uM by FRET assay. The settings on record: filed as agonist.
Experiment [5] has the same target. Nature of the experiment: Binding affinity to RXRalpha-LBD (unknown origin) assessed as increase in fluorescence intensity by measuring maximum excitation wavelength from 382 to 440 nm by FRET assay. The following applies: filed as agonist, dose <= 16.0 µM.
For experiment [6] the target is unchanged. Nature of the experiment: Binding affinity to RXR alpha-LBD (unknown origin) assessed as increase in fluorescence intensity up to 16 uM by FRET assay. The following applies: filed as agonist.

Structures are written as SMILES. Activity calls are given as the source filed them. No cut-off for these calls is given here.

Regarding `CCN(c1ccc2c(C(F)(F)F)cc(=O)n(CC(C)C)c2c1)c1ccc(C(=O)O)cn1`, the equilibrium dissociation constant (Kd) is 10.9 µM in experiment [1] and 6.3 µM in experiment [2]. The result in experiment [3] was inactive. In addition, the result in experiment [4] and in experiment [6] was Active. The Activity result in experiment [5] is “Dose-Dependent Effect”.
